Measurements reported in patent EP0032432A1, “Prostanoid compounds and their preparation and pharmaceutical formulations” (GLAXO GROUP LIMITED, priority 1980, dated 1981).

These molecules were tested on guinea-pig lung (assay: Potential bronchodilatation (method of Lulich et al., guinea-pig lung instead of cat lung; pA2 by Arunlakshana and Schild)). Details: Cavia porcellus, tested at concentrations between 2 x 10^-7 to 2x10^-5 mole/litre.
Assay type: cell-based
`COc1ccc(-c2ccc(COC3CC(=O)C(N4CCCCC4)C3CC=CCCCC(=O)O)cc2)cc1` (racemic) [11e), [1α(Z),2β,5α]-(±)-7-[5-[[4'-Methoxy(1,1'biphenyl)-4-yl]methoxy]-3-oxo-2-(1-piperidinyl)cyclopentyl]-5-heptenoic acid] was tested, and the Kb was 1.58 nM. `Cc1ccc(-c2ccc(COC3CC(=O)C(N4CCCCC4)C3CC=CCCCC(=O)O)cc2)cc1` (racemic) [11g), [1α(Z),2β,5α]-(±)-7-[5-[[4'-Methyl(1,1'-biphenyl)-4-yl]ntethoxy]-3-oxo-2-(1-piperidinyl)cyclopentyl]-5-heptenoic acid] showed a Kb of 3.16 nM. `O=C(O)CCCC=CCC1C(OCc2ccc(Cc3ccccc3)cc2)CC(=O)C1N1CCS(=O)(=O)CC1` (racemic) [11i), [1α(Z),2β,5α]-(±)-7-[3-Oxo-5-[4-(phenylmethyl)-phenylmethoxy]-2-(4-thiomorpholinyl)cyclopentyl]-5-heptenoic acid, S-dioxide] gave a Kb of 3.16 nM. `COc1ccc(-c2csc(COC3CC(O)C(N4CCOCC4)C3CC=CCCCC(=O)O)c2)cc1` (racemic) [Example 10b), [1α(Z),2β,3α,5α]-(±)-7-[3-Hydroxy-5-[[4-(4-methoxyphenyl)thien-2-yl]methoxy]-2-(4-morpholinyl)cyclopentyl]-5-heptenoic acid] gave a Kb of 1 nM.

Same assay, conditions: tested at concentrations between 2 x 10^-7 to 2x10^-5 mole/litre
Molecule `Cc1ccc(-c2ccc(COC3CC(=O)C(N4CCOCC4)C3CCCCCCC(=O)O)cc2)cc1` (racemic) [18a), (1α,2β,5α)-(±)-5-[[4'-Methyl(1,1'-biphenyl)-4-yl]methoxy]-2-(4-morpholinyl)-3-oxocyclopentaneheptanoic acid] has a pA2 of 8.6. Molecule `COc1ccc(-c2ccc(COC3CC(=O)C(N4CCOCC4)C3CCCCCCC(=O)O)cc2)cc1` (racemic) [18d), (1α,2β,5α)-(±)-5-[[-4'-Methoxy(1,1'-biphenyl)-4-yl]-2-(4-morpholinyl)-3-oxocyclopentaneheptanoic acid] has a pA2 of 8.9.

What follows are molecules tested on human whole blood (assay: Inhibition of platelet aggregation (method of Born, collagen instead of ADP as pro-aggregatory agent; pA2 by Arunlakshana and Schild)). Details: tested at a concentration of 2 pg/ml.
Assay type: cell-based
Description: As indicated above, our tests have shown that compounds of formula (1) inhibit blood platelet aggregation and/or have bronchodilatatory activity. The test we have used for bronchodilatation is as described by K.M. Lulich, et al in British Journal of Pharmacology 58, 71-79, (1976) except guinea-pig lung is used instead of cat lung. The test for inhibition of platelet aggregation is as described by G.V. Born in Nature 194, 927-929 (1962) except collagen is used instead of ADP as the pro-aggregatory agent.
The following compounds were tested at a concentration of 2 pg/ml for their ability to inhibit the aggregation of human whole blood according to the method of G V Born in Nature 194, 927-929 (1962) except collagen was used instead of ADP as the pro-aggregatory agent. pA2 values were determined using the standard procedures of Arunlakshana and Schild in Br J Pharmac Chemother, 14, 48-58 (1959): […]
`O=C(O)CCCC=CCC1C(OCc2ccc(-c3cccs3)cc2)CC(=O)C1N1CCOCC1` (racemic) [5f), [1α(Z),2β,5α]-(±)-7-[2-(4-Morpholinyl)-3-oxo-5-[4-(thien-2-yl)phenylmethoxy]cyclopentyl]-5-heptenoic acid] gave a Kb of 44.7 nM. Molecule `COc1ccc(-c2ccc(COC3CC(=O)C(N4CCOCC4)C3CC=CCCCC(=O)O)cc2)cc1` (racemic) [11a), [1α(Z),2β,5α]-(±)-7-[5-[[4'-Methoxy(1,1'-biphenyl)-4-yl]methoxy]-2-(4-morpholinyl)-3-oxocyclopentyl]-5-heptenoic acid] has a Kb of 15.8 nM. `O=C(O)CCCC=CCC1C(OCc2ccc(Cc3ccccc3)cc2)CC(=O)C1N1CCOCC1` (racemic) [11b), 1α(Z),2β,5α]-(±)-7-[2-(4-Morpholinyl)-3-oxo-5-[[4-(phenylmethyl)phenyl]methoxy]cyclopentyl]-5-heptenoic acid] showed a Kb of 39.8 nM. `Cc1ccc(-c2ccc(COC3CC(=O)C(N4CCOCC4)C3CC=CCCCC(=O)O)cc2)cc1` (racemic) [Example 5a), [1α(Z),2β,5α-(±)-7-[5-[[4'-Methyl(1,1'-biphenyl)-4-yl]methoxy]-2-(4-morpholinyl)-3-oxocyclopentyl]-5-heptenoic acid] gave a Kb of 15.8 nM.

Each molecule was assayed on dogs (assay: Toxicity, oral administration to dogs). Details: given orally to dogs at a dose of 1 mg/kg.
Assay type: in vivo
Description: The compounds are in general non-toxic at therapeutically useful doses.
In the case of `COc1ccc(-c2ccc(COC3CC(=O)C(N4CCOCC4)C3CC=CCCCC(=O)O)cc2)cc1` (racemic) [11a), [1α(Z),2β,5α]-(±)-7-[5-[[4'-Methoxy(1,1'-biphenyl)-4-yl]methoxy]-2-(4-morpholinyl)-3-oxocyclopentyl]-5-heptenoic acid], the adverse effects is reported as “no adverse effects”. For `O=C(O)CCCC=CCC1C(OCc2ccc(-c3ccc(-c4ccccc4)cc3)cc2)CC(=O)C1N1CCOCC1` (racemic) [Example 11c), [1α(Z),2β,5α]-(±)-7-[2-(4-Morpholinyl)-3-oxo-5-[[(1,1';4.1"-terphenyl)-4-yl]methoxy]cyclopentyl]-5-heptenoic acid], the adverse effects was “no adverse effects”. In the case of `O=C(O)CCCC=CCC1C(OCc2ccc(Cc3ccccc3)cc2)CC(=O)C1N1CCCCC1` (racemic) [Example 11f), [1α(Z),2β,5α]-(±)-7-[3-Oxo-5-[4-(phenylmethyl)phenylmethoxy]-2-(1-piperidinyl)cyclopentyl]-5-heptenoic acid], the adverse effects is reported as “no adverse effects”.
